Measured values published in US8101612B2, “Phthalazine compounds and methods of use” (Amgen Inc., priority 2006, dated 2012).

Experiments:
[1] = AA2734_IC50_IP (Table 4, assay code not explained); details: internal assay code
[2] = AA5225_IC50_IP (Table 4, assay code not explained); details: internal assay code

SMILES | IC50 [1] [nM] | IC50 [2] [nM]
Cc1ccc(C(=O)Nc2ccnn2C)cc1-c1ccc2c(C3(C(F)(F)F)CC3)nncc2c1 [Example 226, 4-methyl-N-(1-methyl-1H-pyrazol-5-yl)-3-(1-(1-(trifluoromethyl)cyclopropyl)-6-phthalazinyl)benzamide] | 0.173 | 1.12
Cc1c(F)cc(C(=O)NC2CC2)cc1-c1ccc2c(C(C)(C)F)nncc2c1 [Example 253, N-cyclopropyl-3-fluoro-5-(1-(1-fluoro-1-methylethyl)-6-phthalazinyl)-4-methylbenzamide] | 0.168 | 0.696
Cc1ccc(C(=O)NC2CC2)cc1-c1ccc2c(C(C)(C)O)nncc2c1 [Example 248, N-cyclopropyl-3-(1-(1-hydroxy-1-methylethyl)-6-phthalazinyl)-4-methylbenzamide] | 0.826 | 0.812
Cc1ccc(C(=O)NC2CC2)cc1-c1ccc2c([C@@](C)(O)C(F)(F)F)nncc2c1 [Example 229, N-cyclopropyl-4-methyl-3-(1-((1R)-2,2,2-trifluoro-1-hydroxy-1-methylethyl)-6-phthalazinyl)benzamide] | 0.383 | 0.599
Cc1ccc(C(=O)NC2CC2)cc1-c1ccc2c([C@](C)(O)C(F)(F)F)nncc2c1 [Example 230, N-cyclopropyl-4-methyl-3-(1-((1S)-2,2,2-trifluoro-1-hydroxy-1-methylethyl)-6-phthalazinyl)benzamide] | 0.364 | 0.643
Cc1ccc(C#N)cc1-c1ccc2c(O)nncc2c1 [Example 232, 3-(1-hydroxy-6-phthalazinyl)-4-methylbenzonitrile] | – | 1.33
Cc1ccc(C(=O)NC2CC2)cc1-c1ccc2c(C3(C(F)(F)F)CC3)nncc2c1 [Example 225, N-cyclopropyl-4-methyl-3-(1-(1-(trifluoromethyl)cyclopropyl)-6-phthalazinyl)benzamide] | 0.148 | 0.968
Cc1ccc(C(=O)NC2CC2)cc1-c1ccc2c(-c3ccc(S(=O)(=O)C(F)(F)F)cc3C)nncc2c1 [Example 233, N-cyclopropyl-4-methyl-3-(1-(2-methyl-4-((trifluoromethyl)sulfonyl)phenyl)-6-phthalazinyl)benzamide] | 2.89 | 0.62
Cc1c(F)cc(C(=O)NC2CC2)cc1-c1ccc2c(O[C@H](C)C(F)(F)F)nncc2c1 [Example 254, N-cyclopropyl-3-fluoro-4-methyl-5-(1-(((1R)-2,2,2-trifluoro-1-methylethyl)oxy)-6-phthalazinyl)benzamide] | 0.501 | 0.769
Cc1ccc(C(=O)Nc2ccnn2C)cc1-c1ccc2c([C@@](C)(O)C(F)(F)F)nncc2c1 [Example 251, 4-methyl-N-(1-methyl-1H-pyrazol-5-yl)-3-(1-((1R)-2,2,2-trifluoro-1-hydroxy-1-methylethyl)-6-phthalazinyl)benzamide] | 0.2 | 0.913
Cc1ccc(C(=O)Nc2ccnn2C)cc1-c1ccc2c(C(C)(C)F)nncc2c1 [Example 249, 3-(1-(1-fluoro-1-methylethyl)-6-phthalazinyl)-4-methyl-N-(1-methyl-1H-pyrazol-5-yl)benzamide] | 0.334 | 1.14
Cc1ccc(C(=O)O)cc1-c1ccc2c(C(C)(C)O)nncc2c1 [Example 247, 3-(1-(1-hydroxy-1-methylethyl)-6-phthalazinyl)-4-methylbenzoic acid] | – | 1000
Cc1ccc(C#N)cc1-c1ccc2c(O[C@H](C)C(F)(F)F)nncc2c1 [Example 231, 4-methyl-3-(1-(((1R)-2,2,2-trifluoro-1-methylethyl)oxy)-6-phthalazinyl)benzonitrile] | 33.3 | 80.8
Cc1ccc(C(=O)NC2CC2)cc1-c1ccc2c([C@H](C)C(F)F)nncc2c1 [Example 256, N-cyclopropyl-3-(1-((1S)-2,2-difluoro-1-methylethyl)-6-phthalazinyl)-4-methylbenzamide] | 0.18 | 1.03
Cc1ccc(C(=O)Nc2ccnn2C)cc1-c1ccc2c(C(C)(O)C(F)(F)F)nncc2c1 (stereo not drawn) [Example 243, 4-methyl-N-(1-methyl-1H-pyrazol-5-yl)-3-(1-(2,2,2-trifluoro-1-hydroxy-1-methylethyl)-6-phthalazinyl)benzamide] | – | 1.33
Cc1ccc(C(=O)Nc2ccnn2C)cc1-c1ccc2c([C@](C)(O)C(F)(F)F)nncc2c1 [Example 250, 4-methyl-N-(1-methyl-1H-pyrazol-5-yl)-3-(1-((1S)-2,2,2-trifluoro-1-hydroxy-1-methylethyl)-6-phthalazinyl)benzamide] | 0.296 | 0.954
Cc1ccc(C(=O)NC2CC2)cc1-c1ccc2c([C@@H](C)C(F)(F)F)nncc2c1 [Example 227a, N-cyclopropyl-4-methyl-3-(1-((1R)-2,2,2-trifluoro-1-methylethyl)-6-phthalazinyl)benzamide] | 0.455 | 1.08
CCNC(=O)c1ccc(C)c(-c2ccc3c(O[C@@H](C)C(F)(F)F)nncc3c2)c1 [Example 257, N-ethyl-4-methyl-3-(1-(((1S)-2,2,2-trifluoro-1-methylethyl)oxy)-6-phthalazinyl)benzamide] | 0.813 | 1.02
CNC(=O)c1ccc(C)c(-c2ccc3c(O[C@@H](C)C(F)(F)F)nncc3c2)c1 [Example 258, N,4-dimethyl-3-(1-(((1S)-2,2,2-trifluoro-1-methylethyl)oxy)-6-phthalazinyl)benzamide] | 1.75 | –
[2H]c1c([2H])c(C(=O)NC2CC2)c([2H])c(-c2ccc3c(OC(C)C(F)(F)F)nncc3c2)c1C (stereo not drawn) [Example 259, N-cyclopropyl-4-methyl-3-(1-((2,2,2-trifluoro-1-methylethyl)oxy)-6-phthalazinyl)benzamide-d 3] | 1.7 | 0.991
Cc1c(F)cc(C(=O)NC2CC2)cc1-c1ccc2c(O[C@@H](C)C(F)(F)F)nncc2c1 [Example 255, N-cyclopropyl-3-fluoro-4-methyl-5-(1-(((1S)-2,2,2-trifluoro-1-methylethyl)oxy)-6-phthalazinyl)benzamide] | 0.307 | 0.592
Cc1ccc(C(=O)NC2CC2)cc1-c1ccc2c(C(C)(C)F)nncc2c1 [Example 252, N-cyclopropyl-3-(1-(1-fluoro-1-methylethyl)-6-phthalazinyl)-4-methylbenzamide] | 0.242 | 0.745
Cc1ccc(C(=O)NC2CC2)cc1-c1ccc2c(C(C)(O)C(F)(F)F)nncc2c1 (stereo not drawn) [Example 244, N-cyclopropyl-4-methyl-3-(1-(2,2,2-trifluoro-1-hydroxy-1-methylethyl)-6-phthalazinyl)benzamide] | 0.434 | 0.952
